Measurements: PubChem BioAssay AID1845211 (Molecular Pharmacology Branch, DTP, NCI, 2023)
“And” between values parts separate entries of the source, which are not always exact repeats. Identical values can stand only once.

Tested on: NCI-H322M multicellular tumor spheroids, viability (% test/control)
Test: Anticancer human tumor NCI-H322M cell line growth inhibition;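 on viability, T/C: spheroids exposed to compound for seven days before readout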
Details: for viability, T/C: stronger effect = lower value
Description: Multicellular complex tumor spheroid response to DNA repair inhibitors in combination with DNA-damaging drugs
This study explores the anticancer activities of DNA-damaging drugs and inhibitors of DNA damage repair, both as single agents and in combinations. Complex tumor spheroids comprised of malignant cells, endothelial cells and mesenchymal stem cells served as an in vitro model for human solid tumors. This model system incorporates physiologically relevant features and patient-derived or established malignant cell lines with clinically relevant genetic alterations from many tumor types. Twenty-six patient-derived or established malignant cell lines were evaluated representing sarcoma, melanoma, small cell lung cancer (SCLC), non-small cell lung cancer (NSCLC), as well as bladder, ovarian and pancreatic cancers. The concentration ranges selected for each drug and investigational agent were based upon clinically achievable concentrations if the clinical Cmax of the agent was known.
Compounds. The drugs and compounds olaparib (NSC753686), talazoparib (NSC767125), berzosertib (NSC777718), elimusertib (NSC800525), nedisertib (NSC802822), VX-984 (NSC792969), AZD-1390 (NSC803789), temozolomide (NSC362856), topotecan (NSC609699), trabectedin (NSC813783), staurosporine (NSC755774), and gemcitabine (NSC613327) were obtained from the National Cancer Institute (NCI) Developmental Therapeutics Program Chemical Repository. The FDA-approved anticancer drug set is available from the Developmental Therapeutics Program at https://dtp.cancer.gov/organization/dscb/obtaining/available_plates.htm. […] The stock solutions were prepared in dimethyl sulfoxide (DMSO, Sigma-Aldrich, St. Louis, MO, cat. D2650) at 400-fold the tested concentration and stored at -70 degrees C. Prior to their use, the stock solutions were diluted in fresh medium and the final DMSO concentration in the assay was 0.25% (v/v). All drugs and investigational agents were tested over a range starting from a high concentration at or near the clinical Cmax and decreasing in half-log increments. If the clinical Cmax for an agent had not been determined, the highest concentration tested was 10 microM.
Cell Lines. The patient-derived cancer cell (PDC) lines: 156681-154-R-J1-PDC, 283228-195-R-J1-PDC, 287954-098-R-J1-PDC, 292921-168-R-J2-PDC, 349418-098-R-PDC, 425362-245-T-J1-PDC, 556581-035-R-J1-PDC, and BL0293-F563-PDC were received from the NCI Patient-Derived Models Repository (PDMR, https://pdmr.cancer.gov). The established cell lines HS-SY-2 (RRID:CVCL_8719), MPNST, and SYO-1 (RRID:CVCL_7146) were obtained from the Sloan Kettering Institute. The alveolar soft parts sarcoma cell line ASPS-1 (RRID:CVCL_S738) was established at the NCI and grown from internal seed stocks. The following established cell lines were purchased from the American Type Culture Collection (ATCC, Manassas, VA): G-401 (ATCC, cat. CRL-1441, RRID:CVCL_0270), SW982 (ATCC, cat. HTB-93, RRID:CVCL_1734), VA-ES-BJ (ATCC, cat. CRL-2138, RRID:CVCL_1785), NCI-H719 (ATCC, cat. CRL-5837, RRID:CVCL_1582), NCI-H196 (ATCC, cat. CRL-5823, RRID:CVCL_1509), NCI-H841 (ATCC, cat. CRL-5845, RRID:CVCL_1595), NCI-H1618 (ATCC, cat. CRL-5879, RRID:CVCL_1480), NCI-H1876 (ATCC, cat. CRL-5902, RRID:CVCL_1503), DMS 114 (ATCC, cat. CRL-2066; RRID:CVCL_1174), NCI-H211 (ATCC, cat. CRL-5824; RRID:CVCL_1529), and SW 1271 (ATCC, cat. CRL-2177, RRID:CVCL_1716). The small cell lung cancer cell line COR-L88 was purchased from Sigma-Aldrich (cat. 92031917-1VL, RRID:CVCL_1141). The non-small cell lung cancer cell lines NCI-H226 (RRID:CVCL_1544) and NCI-H322M (RRID:CVCL_1557) were established at the NCI and grown from internal seed stocks. Pooled donor human umbilical vein endothelial cells (HUVEC, Lonza, cat. CC-2519) and human mesenchymal stem cells (hMSC, Lonza, cat. PT-2501) were purchased from Lonza (Walkersville, MD).
Cell Culture. All cells were maintained in an incubator at 37 degrees C and 5% CO2 with 95% humidity. […]

## CC1COCCN1c1cc(-c2ccnn2C)c2ccnc(-c3ccn[nH]3)c2n1 (configuration not stated) + COc1cc2c(cc1O)CCNC21CSC2c3c(OC(C)=O)c(C)c4c(c3C(COC1=O)N1C(O)C3Cc5cc(C)c(OC)c(O)c5C(C21)N3C)OCO4
Curve of first compound, second compound 30 pM
  IC50: < 31.6 nM
Curve of first compound, second compound 94.9 pM
  IC50: < 31.6 nM
Curve of first compound, second compound 0.0003 µM
  IC50: < 31.6 nM
Curve of first compound, second compound 0.000949 µM
  IC50: < 31.6 nM
Curve of first compound, second compound 0.003 µM
  IC50: < 31.6 nM
Second compound 30 pM, first compound 0.0316 µM
  viability, T/C: 50.9%
Second compound 30 pM, first compound 0.1 µM
  viability, T/C: 34.8%
Second compound 30 pM, first compound 0.316 µM
  viability, T/C: 28.1%
Second compound 30 pM, first compound 1 µM
  viability, T/C: 29.2%
Second compound 30 pM, first compound 3.16 µM
  viability, T/C: 31%
Second compound 30 pM, first compound 10 µM
  viability, T/C: 33%
Second compound 94.9 pM, first compound 0.0316 µM
  viability, T/C: 42.3%
Second compound 94.9 pM, first compound 0.1 µM
  viability, T/C: 29.3%
Second compound 94.9 pM, first compound 0.316 µM
  viability, T/C: 27.5%
Second compound 94.9 pM, first compound 1 µM
  viability, T/C: 25.9%
Second compound 94.9 pM, first compound 3.16 µM
  viability, T/C: 29.2%
Second compound 94.9 pM, first compound 10 µM
  viability, T/C: 32.3%
Second compound 0.0003 µM, first compound 0.0316 µM
  viability, T/C: 28%
Second compound 0.0003 µM, first compound 0.1 µM
  viability, T/C: 21.1%
Second compound 0.0003 µM, first compound 0.316 µM
  viability, T/C: 21%
Second compound 0.0003 µM, first compound 1 µM
  viability, T/C: 22.7%
Second compound 0.0003 µM, first compound 3.16 µM
  viability, T/C: 24.3%
Second compound 0.0003 µM, first compound 10 µM
  viability, T/C: 26.8%
Second compound 0.000949 µM, first compound 0.0316 µM
  viability, T/C: 19.4%
Second compound 0.000949 µM, first compound 0.1 µM
  viability, T/C: 15%
Second compound 0.000949 µM, first compound 0.316 µM
  viability, T/C: 17%
Second compound 0.000949 µM, first compound 1 µM
  viability, T/C: 19.7%
Second compound 0.000949 µM, first compound 3.16 µM
  viability, T/C: 18.8%
Second compound 0.000949 µM, first compound 10 µM
  viability, T/C: 18%
Second compound 0.003 µM, first compound 0.0316 µM
  viability, T/C: 3.51%
Second compound 0.003 µM, first compound 0.1 µM
  viability, T/C: 3.16%
Second compound 0.003 µM, first compound 0.316 µM
  viability, T/C: 3.09%
Second compound 0.003 µM, first compound 1 µM
  viability, T/C: 2.33%
Second compound 0.003 µM, first compound 3.16 µM
  viability, T/C: 2.23%
Second compound 0.003 µM, first compound 10 µM
  viability, T/C: 0.78%

## Cc1cc(C)c(CNC(=O)c2cc(-c3ccc(CN4CCOCC4)cc3)cc3c2cnn3C2CCCC2)c(=O)[nH]1
Compound 0.0316 µM
  viability, T/C: 93.2% and 96.5% and 81.3%
Compound 0.1 µM
  viability, T/C: 101% and 84.8% and 89%
Compound 0.316 µM
  viability, T/C: 90.7% and 96.1% and 79.9%
Compound 1 µM
  viability, T/C: 101% and 88.8% and 98.1%
Compound 3.16 µM
  viability, T/C: 96.1% and 117% and 84.2%
Compound 10 µM
  viability, T/C: 117% and 114% and 102%
Curve of compound
  IC50: > 10000 nM

## COc1ccc([C@@H](O)c2cc(-c3ncnc4cc(N5CCOCC5)ccc34)c(F)cc2Cl)nn1 + Cn1nnc2c(C(N)=O)ncn2c1=O
Curve of first compound, second compound 1 µM
  IC50: 3690 nM
Curve of first compound, second compound 3.16 µM
  IC50: 1400 nM
Curve of first compound, second compound 10 µM
  IC50: 2040 nM
Curve of first compound, second compound 31.6 µM
  IC50: 2010 nM
Curve of first compound, second compound 100 µM
  IC50: 1920 nM
Second compound 1 µM, first compound 0.0316 µM
  viability, T/C: 86%
Second compound 1 µM, first compound 0.1 µM
  viability, T/C: 77.2%
Second compound 1 µM, first compound 0.316 µM
  viability, T/C: 85.8%
Second compound 1 µM, first compound 1 µM
  viability, T/C: 55.5%
Second compound 1 µM, first compound 3.16 µM
  viability, T/C: 57.1%
Second compound 1 µM, first compound 10 µM
  viability, T/C: 35.4%
Second compound 3.16 µM, first compound 0.0316 µM
  viability, T/C: 78.2%
Second compound 3.16 µM, first compound 0.1 µM
  viability, T/C: 80.8%
Second compound 3.16 µM, first compound 0.316 µM
  viability, T/C: 81.2%
Second compound 3.16 µM, first compound 1 µM
  viability, T/C: 52.9%
Second compound 3.16 µM, first compound 3.16 µM
  viability, T/C: 50.1%
Second compound 3.16 µM, first compound 10 µM
  viability, T/C: 35.8%
Second compound 10 µM, first compound 0.0316 µM
  viability, T/C: 105%
Second compound 10 µM, first compound 0.1 µM
  viability, T/C: 76.9%
Second compound 10 µM, first compound 0.316 µM
  viability, T/C: 68.2%
Second compound 10 µM, first compound 1 µM
  viability, T/C: 61.2%
Second compound 10 µM, first compound 3.16 µM
  viability, T/C: 46.8%
Second compound 10 µM, first compound 10 µM
  viability, T/C: 35.3%
Second compound 31.6 µM, first compound 0.0316 µM
  viability, T/C: 83.6%
Second compound 31.6 µM, first compound 0.1 µM
  viability, T/C: 94.6%
Second compound 31.6 µM, first compound 0.316 µM
  viability, T/C: 65.7%
Second compound 31.6 µM, first compound 1 µM
  viability, T/C: 58.9%
Second compound 31.6 µM, first compound 3.16 µM
  viability, T/C: 47.9%
Second compound 31.6 µM, first compound 10 µM
  viability, T/C: 39.5%
Second compound 100 µM, first compound 0.0316 µM
  viability, T/C: 80.7%
Second compound 100 µM, first compound 0.1 µM
  viability, T/C: 75.5%
Second compound 100 µM, first compound 0.316 µM
  viability, T/C: 82.7%
Second compound 100 µM, first compound 1 µM
  viability, T/C: 58.6%
Second compound 100 µM, first compound 3.16 µM
  viability, T/C: 44.8%
Second compound 100 µM, first compound 10 µM
  viability, T/C: 34.4%
